# Data published in patent publication US11046709B2, “Fused 1,4-diazepines as BET bromodomain inhibitors” (THE REGENTS OF THE UNIVERSITY OF MICHIGAN, priority 2017, dated 2021).
# Where two headings read alike, the source gives them in different places.
# How the values were obtained:
# recombinant BRD4 BD2 = target: T1, recombinant BRD4 BD2 (Homo sapiens, UniProt O60885); test: Competitive fluorescence-polarization (FP) binding assay, BRD4 BD2
# T1 construct: for recombinant BRD4 BD1 and BRD4 BD2 proteins
# Experimental: Fluorescence Polarization (FP) competitive binding studies were carried out using a FAM labeled fluorescent probe, see, e.g., Cpd. No. 350 of US 2014/0256706, to determine binding affinities of representative Compounds of the Disclosure for recombinant BRD4 BD1 and BRD4 BD2 proteins. Equilibrium dissociation constants (Kd) values of the fluorescent probe to BRD4 BD1 and BD2 proteins were determined from protein saturation experiments by monitoring the total fluorescence polarization of mixtures composed with the fluorescent probe at a fixed concentration and proteins with increasing concentrations up to full saturation. Serial dilutions of testing proteins were mixed with the fluorescent probe to a final volume of 200 μl in the assay buffer (100 mM phosphate buffer, pH=6.5, 0.01% Triton X-100 (Sigma, 282103) being added right before assays). Final fluorescent probe concentration was 1.5 nM for both proteins. Plates were incubated at room temperature for 30 minutes with gentle shaking to assure equilibrium. FP values in millipolarization units (mP) were measured using the Infinite M-1000 plate reader (Tecan U.S., Research Triangle Park, N.C.) in Microfluor 1 96-well, black, round-bottom plates (Thermo Scientific, Waltham, Mass.) at an excitation wavelength of 485 nm and an emission wavelength of 530 nm. Kd values of the fluorescent probe, which were calculated by fitting the sigmoidal dose-dependent FP increases as a function of protein concentrations using Graphpad Prism 6.0 software (Graphpad Software, San Diego, Calif.), are 5.5 and 3.0 nM to BDR4 BD1 and 2, respectively.
# The IC50 and Ki values of compounds were determined in a competitive binding experiment. See US 2014/0256706. Mixtures of 10 μl of the tested compounds in assay buffer with 40% Ethylene Glycol and 190 μl of preincubated protein/probe complex solution in the assay buffer (100 mM potassium phosphate, pH 6.5, 0.01% Triton X-100) were added into assay plates which were incubated at room temperature for 30 minutes with gentle shaking. Final concentrations of proteins were 10 and 6 nM in assays for BRD4 BD1 and BD2, respectively. Final probe concentration is 1.5 nM in both assays. Negative controls containing protein/probe complex only (equivalent to 0% inhibition), and positive controls containing only free probes (equivalent to 100% inhibition), were included in each assay plate. FP values were measured as described above. IC50 values were determined by nonlinear regression fitting of the competition curves. Instead of being calculated from IC50 values as described before. Ki values of competitive inhibitors were obtained directly by nonlinear regression fitting as well, based upon the Kd values of the probe to different proteins, and concentrations of the proteins and probes in the competitive assays (US 2014/0256706; Wang, FEBS Lett. 360:111 (1995); Zhang et al., Analytical Biochemistry, 331:138 (2004)).
# Representative compounds in Table 5 were evaluated for their binding affinities to BRD4 BD1 and BD2 proteins using the Competitive Fluorescence-Polarization (FP) Assays described in Example 6, with the data included in Table 6.
# MOLM-13 = test: Cell growth inhibition, 4-day proliferation assay, MOLM-13; type: cell-based; conditions: Homo sapiens, MOLM-13, 96 h, read-out: Cell IC50 (nM) MOLM13
# Experimental: (§1) The effect of representative Compounds of the Disclosure on cell viability was determined in a 4-day proliferation assay. Cells were maintained in the appropriate culture medium with 100/0 FBS at 37° C. and an atmosphere of 5% CO2. All the cell lines were used within three months of thawing fresh vials.
# (§2) In general, cells were seeded in 96-well flat bottom (Corning COSTAR, Corning, N.Y., cat #3595) or white opaque cell culture plates (BD Falcon, cat #353296) at a density of 3,000-10,000 cells/well in 75 μl of culture medium. Compounds were serially diluted in the appropriate medium, and 75 μl of the diluted compounds were added to the appropriate wells of the cell plate. After the addition of compounds, the cells were incubated at 37° C. in an atmosphere of 5% CO2 for 4 days. Cell viability was determined using the CellTiter-Glo® Luminescent Cell Viability Assay Kit (Promega, Madison, Wis.) for leukemia cells and WST (2-(2-methoxy-4-nitrophenyl)-3-(4-nitrophenyl)-5-(2,4-disulfophenyl)-2H-tetrazolium, monosodium salt) Cell Counting-8 Kit (Dojindo Molecular Technologies, Inc., Rockville, Md.) for adherent cells according to the manufacturers' instructions.
# (§3) For WST assay (adherent cells), WST-8 reagent was added to each well at a final concentration of 10% (v/v), and then the plates were incubated at 37° C. for 1-2 hours for color development. The absorbance was measured at 450 nm using a SPECTRAmax PLUS plate reader (Molecular Devices, Sunnyvale, Calif.). The readings were normalized to the DMSO-treated cells and the half maximal inhibitory concentration (IC50) was calculated by nonlinear regression (four parameters sigmoid fitted with variable slope, least squares fit, and no constraint) analysis using the GraphPad Prism 5 software (GraphPad Software, La Jolla, Calif.).
# (§4) For CellTiter-Glo assay (suspension cells), 100 μl of CellTiter-Glo® Reagent was added to each well, and then the plates were incubated at room temperature for 10-20 minutes. The luminescent signal was measured using a Tecan Infinite M1000 multimode microplate reader (Tecan, Morrisville, N.C.). The readings were normalized to the DMSO-treated cells and the IC50 was calculated by nonlinear regression (four parameters sigmoid fitted with variable slope, least squares fit, and no constraint) analysis using the GraphPad Prism 5 software. See US 2014/0256706.
# (§5) For a number of representative compounds in Table 5, their IC50 values in cell growth inhibition activity in the RS4;11 and MOLM-13 human leukemia cell lines and the MDA-MB-231 breast cancer cell line were evaluated using the WST-8 assay described in EXAMPLE 7, with the data shown in Table 7.
# MDA-MB-231 = test: Cell growth inhibition, 4-day proliferation assay, MDA-MB-231; type: cell-based; conditions: Homo sapiens, MDA-MB-231, 96 h, read-out: Cell IC50 (nM) MDA-MB-231
# Experimental: as §1, §2, §3, §4, §5
# [1] = 4-day proliferation assay, Table 4
Structure (SMILES),IC50 (recombinant BRD4 BD2) [µM],IC50 (MOLM-13) [nM],IC50 (MDA-MB-231) [nM],"IC50 (recombinant BRD4 BD2; competitive FP, Table 3, read-out: Binding Affinity BRD4-BD2 IC50) [µM]",IC50 (MOLM-13; [1]) [nM],IC50 (MDA-MB-231; [1]) [nM]
"Cc1c(C#Cc2cncnc2)sc2c1C(c1ccc(Cl)cc1)=NCc1nnc(C)n1-2 [Cpd. No. 5, 4-(4-chlorophenyl)-3,9-dimethyl-2-(pyrimidin-5-ylethynyl)-6H-thieno[3,2-f][1,2,4]triazolo[4,3-a][1,4]diazepine]",0.305,176 ± 25.5,214 ± 35.2,,,
"Cc1c(C#Cc2ccc(N)nc2)sc2c1C(c1ccc(Cl)cc1)=N[C@@H](C)c1nnc(C)n1-2 [Cpd. No. 18, (S)-5-((4-(4-chlorophenyl)-3,6,9-trimethyl-6H-thieno[3,2-f][1,2,4]triazolo[4,3-a][1,4]diazepin-2-yl)ethynyl)pyridin-2-amine]",0.00884,9.63,2.44,,,
"Cc1c(C#Cc2ccnn2C)sc2c1C(c1ccc(Cl)cc1)=N[C@@H](C)c1nnc(C)n1-2 [Cpd. No. 17, (S)-4-(4-chlorophenyl)-3,6,9-trimethyl-2-((1-methyl-1H-pyrazol-5-yl)ethynyl)-6H-thieno[3,2-f][1,2,4]triazolo[4,3-a][1,4]diazepine]",0.0144,23.7,14.6,,,
"Cc1c(C#Cc2ccncc2)sc2c1C(c1ccc(Cl)cc1)=N[C@@H](C)c1nnc(C)n1-2 [Cpd. No. 8, (S)-4-(4-chlorophenyl)-3,6,9-trimethyl-2-(pyridin-4-ylethynyl)-6H-thieno[3,2-f][1,2,4]triazolo[4,3-a][1,4]diazepine]",0.0104,13.5 ± 0.8,64.5 ± 22.7,,,
Cc1c(C#Cc2ccc(CCCCO)cn2)sc2c1C(c1ccc(Cl)cc1)=N[C@@H](C)c1nnc(C)n1-2 [Cpd. No. 13],,,,0.0111,23,84.4
"COCC#Cc1sc2c(c1C)C(c1ccc(Cl)cc1)=N[C@@H](C)c1nnc(C)n1-2 [Cpd. No. 15, (S)-4-(4-chlorophenyl)-2-(3-methoxyprop-1-yn-1-yl)-3,6,9-trimethyl-6H-thieno[3,2-f][1,2,4]triazolo[4,3-a][1,4]diazepine]",0.0113,25.6,51.1,,,
"Cc1c(C#CCO)sc2c1C(c1ccc(Cl)cc1)=NCc1nnc(C)n1-2 [Cpd. No. 9, 3-(4-(4-chlorophenyl)-3,9-dimethyl-6H-thieno[3,2-f][1,2,4]triazolo[4,3-a][1,4]diazepin-2-yl)prop-2-yn-1-ol]",0.126,215,412,,,
"Cc1c(C#Cc2cncnc2)sc2c1C(c1ccc(Cl)cc1)=N[C@@H](C)c1nnc(C)n1-2 [Cpd. No. 6, (S)-4-(4-chlorophenyl)-3,6,9-trimethyl-2-(pyrimidin-5-ylethynyl)-6H-thieno[3,2-f][1,2,4]triazolo[4,3-a][1,4]diazepine]",0.016,15.6 ± 1.7,17.8 ± 19,,,
"Cc1c(C#CCCCO)sc2c1C(c1ccc(Cl)cc1)=N[C@@H](C)c1nnc(C)n1-2 [Cpd. No. 11, (S)-5-(4-(4-chlorophenyl)-3,6,9-trimethyl-6H-thieno[3,2-f][1,2,4]triazolo[4,3-a][1,4]diazepin-2-yl)pent-4-yn-1-ol]",0.00722,6.87,< 1.7,,,
"Cc1c(C#Cc2ccccn2)sc2c1C(c1ccc(Cl)cc1)=N[C@@H](C)c1nnc(C)n1-2 [Cpd. No. 2, (S)-4-(4-chlorophenyl)-3,6,9-trimethyl-2-(pyridin-2-ylethynyl)-6H-thieno[3,2-f][1,2,4]triazolo[4,3-a][1,4]diazepine]",0.0145,15.7 ± 0.43,31,,,
"Cc1c(C#Cc2ccccn2)sc2c1C(c1ccc(Cl)cc1)=NCc1nnc(C)n1-2 [Cpd. No. 1, 4-(4-chlorophenyl)-3,9-dimethyl-2-(pyridin-2-ylethynyl)-6H-thieno[3,2-f][1,2,4]triazolo[4,3-a][1,4]diazepine]",0.178,206 ± 21.9,272,,,
"Cc1c(C#Cc2cccnc2)sc2c1C(c1ccc(Cl)cc1)=N[C@@H](C)c1nnc(C)n1-2 [Cpd. No. 4, (S)-4-(4-chlorophenyl)-3,6,9-trimethyl-2-(pyridin-3-ylethynyl)-6H-thieno[3,2-f][1,2,4]triazolo[4,3-a][1,4]diazepine]",0.0125,10.5 ± 0.24,2.63 ± 0.6,,,
"Cc1c(C#Cc2cnn(CC(=O)O)c2)sc2c1C(c1ccc(Cl)cc1)=N[C@@H](C)c1nnc(C)n1-2 [Cpd. No. 14, (S)-2-(4-((4-(4-chlorophenyl)-3,6,9-trimethyl-6H-thieno[3,2-f][1,2,4]triazolo[4,3-a][1,4]diazepin-2-yl)ethynyl)-1H-pyrazol-1-yl)acetic acid]",0.0123,964,965,,,
"Cc1c(C#CCO)sc2c1C(c1ccc(Cl)cc1)=N[C@@H](C)c1nnc(C)n1-2 [Cpd. No. 10, (S)-3-(4-(4-chlorophenyl)-3,6,9-trimethyl-6H-thieno[3,2-f][1,2,4]triazolo[4,3-a][1,4]diazepin-2-yl)prop-2-yn-1-ol]",0.0118,30.5,31.8,,,
"Cc1c(C#Cc2ccncc2)sc2c1C(c1ccc(Cl)cc1)=NCc1nnc(C)n1-2 [Cpd. No. 7, 4-(4-chlorophenyl)-3,9-dimethyl-2-(pyridin-4-ylethynyl)-6H-thieno[3,2-f][1,2,4]triazolo[4,3-a][1,4]diazepine]",1.67,144 ± 16.3,660 ± 83.6,,,
"Cc1c(C#Cc2cccnc2)sc2c1C(c1ccc(Cl)cc1)=NCc1nnc(C)n1-2 [Cpd. No. 3, 4-(4-chlorophenyl)-3,9-dimethyl-2-(pyridin-3-ylethynyl)-6H-thieno[3,2-f][1,2,4]triazolo[4,3-a][1,4]diazepine]",0.124,145 ± 13.7,151 ± 19,,,
"Cc1c(C#Cc2cnn(CCCO)c2)sc2c1C(c1ccc(Cl)cc1)=N[C@@H](C)c1nnc(C)n1-2 [Cpd. No. 12, (S)-3-(4-((4-(4-chlorophenyl)-3,6,9-trimethyl-6H-thieno[3,2-f][1,2,4]triazolo[4,3-a][1,4]diazepin-2-yl)ethynyl)-1H-pyrazol-1-yl)propan-1-ol]",0.0109,3.74,31.5,,,
